# Assay results from article PMC7707092, “Discovery and characterization of ORM‐11372, a novel inhibitor of the sodium‐calcium exchanger with positive inotropic activity” (British Journal of Pharmacology, 2020).
# Key:
# Type in all cases: cell-based
# h5‐HT2A receptors = target: T1, h5‐HT2A receptors (Homo sapiens, UniProt P28223); assay: h5‐HT2A agonism and antagonism, intracellular calcium in recombinant HEK 293 cells; settings: maximum concentration 10 μM
# T1 construct: host or cells: recombinant HEK 293
# Protocol: Radioligand binding assays were performed at Eurofins Cerep SA (Celle L'Evescault, France), for testing the inhibition capacity of ORM‐11372 (at 10 μM with two replicates), in over 75 targets. These included receptors (e.g., human A1, A2A, and A3 adenosine receptors; α1 and α2 adrenoceptors; human β1–β3 adrenergic receptors; human D1, D2S, D3, D4.4, and D5 dopamine receptors; EGF and VEGF receptors; human M1–M5 muscarinic ACh receptors; human 5‐HT1A, 5‐HT2A, 5‐HT2B, 5‐HT2C, 5‐HT4e, 5‐HT5A, 5‐HT6, and 5‐HT7 receptors), ion channels (5‐HT3, Ca^2+, ATP‐dependent potassium channel [KATP], voltage‐dependent potassium channel [KV], small‐conductance calcium‐dependent potassium channel [SKCa], Na^+, and Cl^−), and transporters (adenosine, noradrenaline, dopamine, and 5‐HT). Follow‐up functional studies (with five concentrations and two replicates) were performed for 5‐HT2A receptors and noradrenaline transporter. Agonism and antagonism at h5‐HT2A receptors was explored in recombinant HEK 293 cells and intracellular calcium changes were detected using fluorimetry. Noradrenaline uptake was measured by carrying out scintillation counting of [^3H]noradrenaline incorporated into rat hypothalamus synaptosomes.
# [1] = target: T2, L‐type Ca^2+ channel current (I CaL) (Homo sapiens, UniProt Q13936); assay: L‐type calcium current (I CaL), patch‐clamp in hiPSC‐derived cardiomyocytes; settings: hiPSC‐CMs, 0 mV, read-out: inhibition of inward I CaL
# T2 construct: I CaL was recorded from hiPSC‐derived CMs; host or cells: Cor.4U hiPSC-derived cardiomyocytes
# Excerpt: Manual patch‐clamp recordings of membrane currents (I NCX, L‐type Ca^2+ channel current [I CaL], human cardiac sodium 1.5 current [I Na], and I hERG) were undertaken using either an Axopatch 200B or Axopatch ID amplifier (Molecular Devices, USA), using the whole‐cell configuration. Cells were at least initially (except when recording I Na) perfused with an extracellular solution consisting of (in mM) 143 NaCl, 4 KCl, 1.8 CaCl2, 1.2 MgCl2, 5 glucose, and 10 HEPES (pH 7.4 with NaOH; osmolarity adjusted to 301 ± 3 mOsm). A slightly modified version was used for the rat ventricular CMs (in mM: 144 NaCl, 0.4 NaH2PO4, 4.0 KCl, 1.8 CaCl2, 0.53 MgSO4, 5.5 glucose, and 5.0 HEPES). Patch pipettes were pulled with a P‐2000 or P‐97 micropipette puller (Sutter Instruments, USA) from borosilicate glass capillaries and had resistances of between 2 and 4 MΩ when filled with any of the pipette solutions (see below). The data were filtered at 1 or 2 kHz and digitized at 10 kHz with acquisition and analysis performed by use of pClamp software (Versions 8–10; Molecular Devices; RRID:SCR_011323).
# I CaL was recorded from hiPSC‐derived CMs (at room temperature, n = 2) and rat ventricular myocytes at 1 μM (n = 3; 5 cells) and at 10 μM (n = 4; 6 cells) in an extracellular solution supplemented with 4‐aminopyridine (3 mM) at 37 °C. […]
# [2] = target: T3, human NaV1.5 channel current (I Na) (Homo sapiens, UniProt Q14524); assay: NaV1.5 channel current (I Na), patch‐clamp in HEK cells; settings: room temperature
# T3 construct: host or cells: HEK 293, transient (lipofectamine)
# Excerpt: The hERG‐encoded voltage‐dependent potassium channel current (I hERG) cells to be studied were harvested with Detachin solution and either diluted with a volume of CHO cell serum‐free media (supplemented with 100 IU·ml^−1 of penicillin/streptomycin and 25‐mM HEPES) to obtain cells, for which the cell density was ~4 x10^6 cells·ml^−1, or plated on glass coverslips and used on the following 1–2 days. HEK 293 cells were transiently transfected using lipofectamine (Invitrogen, USA), with a human sodium voltage‐gated channel subunit 5 (hSCN5) A (transcript variant 2)‐containing plasmid, in Optimem medium. After a 5‐h incubation period, the transfection medium was replaced with the normal growth medium. The cells were harvested by trypsinization, centrifuged and resuspended in the appropriate extracellular solution for performing studies the next day. CHO–5‐HT2B cells were plated into 96‐well plates on the previous day, at a density of 4 x10^4 cells per well, with a modified version of the growth media.
# Manual patch‐clamp recordings of membrane currents (I NCX, L‐type Ca^2+ channel current [I CaL], human cardiac sodium 1.5 current [I Na], and I hERG) were undertaken using either an Axopatch 200B or Axopatch ID amplifier (Molecular Devices, USA), using the whole‐cell configuration. […]
# T2 sequence (Q13936 whole entry): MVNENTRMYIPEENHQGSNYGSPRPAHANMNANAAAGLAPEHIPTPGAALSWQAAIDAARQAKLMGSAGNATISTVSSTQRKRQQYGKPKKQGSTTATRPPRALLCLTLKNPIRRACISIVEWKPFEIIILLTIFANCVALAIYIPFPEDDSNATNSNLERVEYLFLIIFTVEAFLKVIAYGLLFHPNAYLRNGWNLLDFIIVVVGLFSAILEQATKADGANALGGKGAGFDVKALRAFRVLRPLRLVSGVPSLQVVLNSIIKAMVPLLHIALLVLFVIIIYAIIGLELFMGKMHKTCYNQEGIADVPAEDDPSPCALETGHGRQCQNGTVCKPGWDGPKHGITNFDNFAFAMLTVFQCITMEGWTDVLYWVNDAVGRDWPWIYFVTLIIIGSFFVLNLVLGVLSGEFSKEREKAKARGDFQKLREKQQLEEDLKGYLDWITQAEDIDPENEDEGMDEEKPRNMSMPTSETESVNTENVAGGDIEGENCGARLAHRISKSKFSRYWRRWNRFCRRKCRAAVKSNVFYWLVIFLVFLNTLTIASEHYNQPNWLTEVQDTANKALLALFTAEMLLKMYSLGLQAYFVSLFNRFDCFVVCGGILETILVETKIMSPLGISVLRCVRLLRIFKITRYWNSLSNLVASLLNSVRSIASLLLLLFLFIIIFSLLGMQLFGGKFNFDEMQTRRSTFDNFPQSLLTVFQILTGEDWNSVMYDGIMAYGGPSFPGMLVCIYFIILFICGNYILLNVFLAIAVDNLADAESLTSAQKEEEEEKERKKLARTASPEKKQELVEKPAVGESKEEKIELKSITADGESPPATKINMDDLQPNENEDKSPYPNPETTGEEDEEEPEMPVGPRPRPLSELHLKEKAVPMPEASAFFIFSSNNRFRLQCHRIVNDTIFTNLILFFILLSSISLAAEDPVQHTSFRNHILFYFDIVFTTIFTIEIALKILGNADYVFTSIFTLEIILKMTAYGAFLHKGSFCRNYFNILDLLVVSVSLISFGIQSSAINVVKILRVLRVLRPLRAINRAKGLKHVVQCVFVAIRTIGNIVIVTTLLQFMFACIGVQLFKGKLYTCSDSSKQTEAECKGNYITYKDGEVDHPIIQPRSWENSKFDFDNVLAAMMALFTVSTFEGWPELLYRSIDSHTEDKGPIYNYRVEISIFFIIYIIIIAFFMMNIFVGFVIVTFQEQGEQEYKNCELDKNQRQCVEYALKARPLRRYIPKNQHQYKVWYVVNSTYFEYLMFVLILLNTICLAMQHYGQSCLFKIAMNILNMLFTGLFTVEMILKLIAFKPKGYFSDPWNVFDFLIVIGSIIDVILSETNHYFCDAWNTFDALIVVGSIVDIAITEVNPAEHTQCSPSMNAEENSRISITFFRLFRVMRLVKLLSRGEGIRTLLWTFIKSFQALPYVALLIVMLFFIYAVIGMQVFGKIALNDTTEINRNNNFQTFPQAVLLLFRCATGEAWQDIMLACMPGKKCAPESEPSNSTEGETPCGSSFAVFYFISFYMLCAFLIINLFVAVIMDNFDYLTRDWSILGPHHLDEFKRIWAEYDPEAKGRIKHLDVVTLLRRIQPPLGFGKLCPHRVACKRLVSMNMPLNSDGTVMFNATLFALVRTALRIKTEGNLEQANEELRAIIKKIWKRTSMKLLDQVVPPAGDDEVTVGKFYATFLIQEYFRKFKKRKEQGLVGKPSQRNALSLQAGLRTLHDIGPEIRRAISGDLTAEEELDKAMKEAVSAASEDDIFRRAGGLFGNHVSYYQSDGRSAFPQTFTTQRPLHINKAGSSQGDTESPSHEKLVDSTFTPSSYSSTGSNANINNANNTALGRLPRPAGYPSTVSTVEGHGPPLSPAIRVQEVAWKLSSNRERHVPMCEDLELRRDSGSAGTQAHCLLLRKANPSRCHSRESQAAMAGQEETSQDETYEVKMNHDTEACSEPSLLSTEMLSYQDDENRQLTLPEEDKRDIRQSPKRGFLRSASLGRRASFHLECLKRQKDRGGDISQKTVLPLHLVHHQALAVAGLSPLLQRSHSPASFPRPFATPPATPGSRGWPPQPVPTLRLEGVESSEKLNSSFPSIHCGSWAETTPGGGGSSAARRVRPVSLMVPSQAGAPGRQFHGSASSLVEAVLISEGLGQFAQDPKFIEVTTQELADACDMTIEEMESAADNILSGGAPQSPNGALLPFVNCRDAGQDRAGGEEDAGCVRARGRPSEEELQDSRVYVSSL
# T2 sequence (Q08289 whole entry partner): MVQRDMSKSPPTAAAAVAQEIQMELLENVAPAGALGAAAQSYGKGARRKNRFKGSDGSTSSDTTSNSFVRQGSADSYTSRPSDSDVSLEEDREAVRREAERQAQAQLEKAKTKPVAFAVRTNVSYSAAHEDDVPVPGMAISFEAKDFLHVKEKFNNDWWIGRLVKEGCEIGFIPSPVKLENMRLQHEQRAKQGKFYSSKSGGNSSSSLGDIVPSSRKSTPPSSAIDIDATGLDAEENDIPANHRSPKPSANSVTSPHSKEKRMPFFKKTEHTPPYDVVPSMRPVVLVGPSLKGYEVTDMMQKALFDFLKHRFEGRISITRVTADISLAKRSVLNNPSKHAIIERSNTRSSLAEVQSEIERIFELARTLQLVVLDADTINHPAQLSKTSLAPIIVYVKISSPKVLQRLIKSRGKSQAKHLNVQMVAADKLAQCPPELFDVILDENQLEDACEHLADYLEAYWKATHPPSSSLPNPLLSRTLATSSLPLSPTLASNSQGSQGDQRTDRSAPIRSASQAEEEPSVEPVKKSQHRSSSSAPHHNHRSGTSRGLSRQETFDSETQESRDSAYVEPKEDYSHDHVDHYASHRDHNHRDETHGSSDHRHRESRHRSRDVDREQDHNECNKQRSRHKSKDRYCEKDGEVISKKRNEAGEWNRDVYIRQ
# T2 sequence (P54289 25-946 partner limits assumed): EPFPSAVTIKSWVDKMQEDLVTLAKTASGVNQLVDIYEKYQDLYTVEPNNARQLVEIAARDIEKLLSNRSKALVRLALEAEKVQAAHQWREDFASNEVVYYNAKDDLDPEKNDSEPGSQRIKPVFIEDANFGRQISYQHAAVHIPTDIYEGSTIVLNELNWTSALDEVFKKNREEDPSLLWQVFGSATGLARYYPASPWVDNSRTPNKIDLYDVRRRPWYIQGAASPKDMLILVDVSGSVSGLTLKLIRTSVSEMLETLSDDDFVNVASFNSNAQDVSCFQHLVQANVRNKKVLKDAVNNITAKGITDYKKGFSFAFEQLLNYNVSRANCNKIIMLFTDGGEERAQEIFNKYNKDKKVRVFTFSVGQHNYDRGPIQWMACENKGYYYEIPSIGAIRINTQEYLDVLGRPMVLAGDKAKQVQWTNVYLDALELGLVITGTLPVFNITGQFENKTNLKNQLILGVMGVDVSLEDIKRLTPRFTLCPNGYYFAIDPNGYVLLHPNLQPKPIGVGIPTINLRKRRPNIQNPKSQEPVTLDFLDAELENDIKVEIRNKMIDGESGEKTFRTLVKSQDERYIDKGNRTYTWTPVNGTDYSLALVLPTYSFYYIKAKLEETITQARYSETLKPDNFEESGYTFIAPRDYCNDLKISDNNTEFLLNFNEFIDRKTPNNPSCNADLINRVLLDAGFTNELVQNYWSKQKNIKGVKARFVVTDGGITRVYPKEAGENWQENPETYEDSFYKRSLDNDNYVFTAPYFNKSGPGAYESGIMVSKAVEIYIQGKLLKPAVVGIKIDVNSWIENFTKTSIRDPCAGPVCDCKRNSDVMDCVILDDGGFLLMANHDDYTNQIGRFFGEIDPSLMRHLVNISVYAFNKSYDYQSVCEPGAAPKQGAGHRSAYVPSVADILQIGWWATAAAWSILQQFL
# T2 sequence (P54289 947-1103 partner limits assumed): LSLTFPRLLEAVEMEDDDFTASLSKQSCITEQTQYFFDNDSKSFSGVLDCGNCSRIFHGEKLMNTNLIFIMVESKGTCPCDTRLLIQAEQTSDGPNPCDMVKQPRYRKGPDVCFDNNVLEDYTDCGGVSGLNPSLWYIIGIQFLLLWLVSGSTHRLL
# T1 sequence (P28223 whole entry): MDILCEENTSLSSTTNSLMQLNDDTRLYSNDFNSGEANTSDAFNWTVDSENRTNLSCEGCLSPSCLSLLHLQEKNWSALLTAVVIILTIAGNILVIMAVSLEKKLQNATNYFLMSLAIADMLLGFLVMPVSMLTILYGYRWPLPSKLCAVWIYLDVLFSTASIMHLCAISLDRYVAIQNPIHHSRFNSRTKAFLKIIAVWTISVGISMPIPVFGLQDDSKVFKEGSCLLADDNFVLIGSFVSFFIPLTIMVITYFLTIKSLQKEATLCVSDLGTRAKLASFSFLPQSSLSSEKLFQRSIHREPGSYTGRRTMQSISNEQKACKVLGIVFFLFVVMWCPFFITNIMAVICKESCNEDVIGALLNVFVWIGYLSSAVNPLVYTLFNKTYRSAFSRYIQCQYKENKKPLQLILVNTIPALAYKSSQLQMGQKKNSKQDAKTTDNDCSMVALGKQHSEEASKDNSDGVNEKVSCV
compound,measurement,setting,value
Nc1cccc(-c2ccc(CNc3ccc(F)cc3)o2)c1 [ORM‐11372],agonism / antagonism at 5‐HT2A receptors,h5‐HT2A receptors,Neither agonism nor antagonism
same,inhibition at 1 µM,[1],14.1%
same,IC50,[2],23.2 µM
